These results are taken from ChEMBL document CHEMBL2417489, “A structure-activity relationship study of 1,2,4-triazolo[1,5-a][1,3,5]triazin-5,7-dione and its 5-thioxo analogues on anti-thymidine phosphorylase and associated anti-angiogenic activities” (Eur J Med Chem, 2013).

Activity calls are given as the source filed them. No cut-off for these calls is given here.

A word on the IC50: it is the concentration that gives 50% inhibition.

One assay concerns the target T1, Thymidine phosphorylase (Homo sapiens, UniProt P19971).
T1 sequence (P19971 whole entry): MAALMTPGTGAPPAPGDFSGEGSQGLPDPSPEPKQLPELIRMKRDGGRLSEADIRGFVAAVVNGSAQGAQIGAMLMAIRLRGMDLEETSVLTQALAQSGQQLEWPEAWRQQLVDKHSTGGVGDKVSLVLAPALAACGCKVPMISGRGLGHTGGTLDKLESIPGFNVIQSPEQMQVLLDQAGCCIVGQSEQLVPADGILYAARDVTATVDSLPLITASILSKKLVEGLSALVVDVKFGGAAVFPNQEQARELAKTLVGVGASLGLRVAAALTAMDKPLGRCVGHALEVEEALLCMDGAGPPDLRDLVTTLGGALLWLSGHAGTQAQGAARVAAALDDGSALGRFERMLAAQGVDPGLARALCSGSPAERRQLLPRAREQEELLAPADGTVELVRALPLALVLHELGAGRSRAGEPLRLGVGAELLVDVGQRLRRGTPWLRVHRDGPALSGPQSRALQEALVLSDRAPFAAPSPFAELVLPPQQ
Nature of the assay: Inhibition of human recombinant thymidine phosphorylase expressed in Escherichia coli using thymidine as substrate after 4 to 20 mins by spectrophotometry.

Assay [1] deals with MDA-MB-231. Conditions: Homo sapiens, 50 to 100 uM.
Description: Antiangiogenic activity in human MDA-MB-231 cells assessed as inhibition of PMA-induced MMP-9 expression at 50 to 100 uM after 24 hrs by densitometric analysis relative to vehicle-treated control
Assay [2] relates to MDA-MB-231. Conditions: Homo sapiens, 200 uM.
Description: Antiangiogenic activity in human MDA-MB-231 cells assessed as inhibition of PMA-induced MMP-9 expression at 200 uM after 24 hrs by gelatine zymography relative to vehicle-treated control
In assay [3] the test system is MDA-MB-231. Conditions: Homo sapiens, 25 to 200 uM.
Description: Antiangiogenic activity in human MDA-MB-231 cells assessed as inhibition of VEGF protein expression at 25 to 200 uM after 24 hrs by ELISA relative to vehicle-treated control
In assay [4] the test system is MDA-MB-231. Conditions: Homo sapiens, 100 to 200 uM.
Description: Antiangiogenic activity in human MDA-MB-231 cells assessed as inhibition of PMA-induced MMP-9 expression at 100 to 200 uM after 24 hrs by densitometric analysis relative to vehicle-treated control

Turning to `O=c1[nH]c(=O)n2nc(Cc3ccccc3)nc2[nH]1`, the IC50 at Thymidine phosphorylase is greater than 100 µM.
`O=c1[nH]c(=S)[nH]c2nc(Cc3ccc(Cl)c(Cl)c3)nn12`: in the assay with MDA-MB-231 [1], the inhibition entry was “inactive”. Moreover, the inhibition entry in the assay on MDA-MB-231 [2] and in the assay on MDA-MB-231 [3] was “Active” each time.
As for `O=c1[nH]c(=O)n2nc(-c3ccccc3)nc2[nH]1`, the 50% inhibitory concentration (IC50) at Thymidine phosphorylase is greater than 100 µM.
On to `Cc1cc(-c2nc3[nH]c(=S)[nH]c(=O)n3n2)ccc1Br`, for which the inhibition result with MDA-MB-231 [4], in the assay on MDA-MB-231 [2] and in the assay with MDA-MB-231 [3] was “Active” in each case.
As to `O=c1[nH]c(=S)[nH]c2nc(-c3ccc(Cl)c(Cl)c3)nn12`, the inhibition entry in the assay with MDA-MB-231 [4], with MDA-MB-231 [2] and in the assay on MDA-MB-231 [3] was “Active” in each case.
